From US20250179073A1, “TRICYCLIC HETEROCYCLE COMPOUNDS AS IAP ANTAGONISTS” (Ascentage Pharma (Suzhou) Co., Ltd., priority 2022, published 2025)

These compounds were tested on MDA-MB-231 cells (assay: Cell proliferation assay (CellTiter-Glo), MDA-MB-231). Conditions: Homo sapiens, MDA-MB-231, 72 h, 72 h treatment, Celltiter-Glo luminescence.
Format: cell-based
Method in brief: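 MDA-MB-231 (RPMI-1640/10% FBS) and EVSA-T (MEM/10% FBS) cells, 10000 cells/well, exposed 72 h to compound at […]. Viability read by CellTiter-Glo luminescence after 15 min at room temperature. IC50 from control-normalised curve fitting.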

| IC50 [nM] | Structure (SMILES) |
| --- | --- |
| 77 | COC(=O)N1CCN(CC2CN[C@H](C)CN2CC(=O)N2CC(C)(C)c3c2cc(Cc2ccc(F)cc2)c2ncnn32)[C@H](C)C1 (stereo in doubt) [Compound 223, methyl (R)-4-(((2S,5R)-1-(2-(4-(4-fluorobenzyl)-8,8-dimethyl-7,8-dihydro-6H-pyrrolo[2,3-e][1,2,4]triazolo[1,5-a]pyridin-6-yl)-2-oxoethyl)-5-methylpiperazin-2-yl)methyl)-3-methylpiperazine-1-carboxylate] |
| 77 | C[C@@H]1CN(CC(=O)N2CC(C)(C)c3c2cc(Cc2ccc(F)cc2)c2cncn32)[C@@H](CN2CCOC[C@H]2C)CN1 [Compound 1, 1-(4-(4-fluorobenzyl)-8,8-dimethyl-7,8-dihydro-6H-imidazo[1,5-a]pyrrolo[2,3-e]pyridin-6-yl)-2-((2R,5R)-5-methyl-2-(((R)-3-methylmorpholino)methyl)piperazin-1-yl)ethan-1-one] |
| 110 | Cc1ncc2c(Cc3ccc(F)cc3)cc3c(n12)C(C)(C)CN3C(=O)CN1C[C@@H](C)NC[C@@H]1CN1CCOC[C@H]1C [Compound 2, 1-(4-(4-fluorobenzyl)-1,8,8-trimethyl-7,8-dihydro-6H-imidazo[1,5-a]pyrrolo[2,3-e]pyridin-6-yl)-2-((2R,5R)-5-methyl-2-(((R)-3-methylmorpholino)methyl)piperazin-1-yl)ethan-1-one] |
| 60 | C[C@@H]1CN(CC(=O)N2CC(C)(C)c3c2cc(Cc2ccc(F)cc2)c2nc(C#N)nn32)[C@@H](CN2CCOC[C@H]2C)CN1 [Compound 32, 4-(4-fluorobenzyl)-8,8-dimethyl-6-(2-((2R,5R)-5-methyl-2-(((R)-3-methylmorpholino)methyl)piperazin-1-yl)acetyl)-7,8-dihydro-6H-pyrrolo[2,3-e][1,2,4]triazolo[1,5-a]pyridine-2-carbonitrile] |
| 29 | C[C@@H]1CN(CC(=O)N2CC(C)(C)c3c2cc(Cc2ccc(F)cc2)c2nn(CC(C)(C)O)c(=O)n32)[C@@H](CN2CC(F)(F)C[C@H]2C)CN1 [Compound 288, 6-(2-((2R,5R)-2-(((R)-4,4-difluoro-2-methylpyrrolidin-1-yl)methyl)-5-methylpiperazin-1-yl)acetyl)-4-(4-fluorobenzyl)-2-(2-hydroxy-2-methylpropyl)-8,8-dimethyl-2,6,7,8-tetrahydro-1H-pyrrolo[2,3-e][1,2,4]triazolo[4,3-a]pyridin-1-one] |
| 97 | CCc1ncc2c(Cc3ccc(F)cc3)cc3c(n12)C(C)(C)CN3C(=O)CN1C[C@@H](C)NC[C@@H]1CN1CCOC[C@H]1C [Example 4, 1-(1-ethyl-4-(4-fluorobenzyl)-8,8-dimethyl-7,8-dihydro-6H-imidazo[1,5-a]pyrrolo[2,3-e]pyridin-6-yl)-2-((2R,5R)-5-methyl-2-(((R)-3-methylmorpholino)methyl)piperazin-1-yl)ethan-1-one] |
| 160 | CC(C)c1ncc2c(Cc3ccc(F)cc3)cc3c(n12)C(C)(C)CN3C(=O)CN1C[C@@H](C)NC[C@@H]1CN1CCOC[C@H]1C [Example 5, 1-(4-(4-fluorobenzyl)-1-isopropyl-8,8-dimethyl-7,8-dihydro-6H-imidazo[1,5-a]pyrrolo[2,3-e]pyridin-6-yl)-2-((2R,5R)-5-methyl-2-(((R)-3-methylmorpholino)methyl)piperazin-1-yl)ethan-1-one] |
| 50 | C[C@@H]1CN(CC(=O)N2CC(C)(C)c3c2cc(Cc2ccc(F)cc2)c2cnc(C4CCC4)n32)[C@@H](CN2CCOC[C@H]2C)CN1 [Example 6, 1-(1-cyclobutyl-4-(4-fluorobenzyl)-8,8-dimethyl-7,8-dihydro-6H-imidazo[1,5-a]pyrrolo[2,3-e]pyridin-6-yl)-2-((2R,5R)-5-methyl-2-(((R)-3-methylmorpholino)methyl)piperazin-1-yl)ethan-1-one] |
| 140 | C[C@@H]1CN(CC(=O)N2CC(C)(C)c3c2cc(Cc2ccc(F)cc2)c2cnc(C4CCOCC4)n32)[C@@H](CN2CCOC[C@H]2C)CN1 [Example 7, 1-(4-(4-fluorobenzyl)-8,8-dimethyl-1-(tetrahydro-2H-pyran-4-yl)-7,8-dihydro-6H-imidazo[1,5-a]pyrrolo[2,3-e]pyridin-6-yl)-2-((2R,5R)-5-methyl-2-(((R)-3-methylmorpholino)methyl)piperazin-1-yl)ethan-1-one] |
| 36 | C[C@@H]1CN(CC(=O)N2CC(C)(C)c3c2cc(Cc2ccc(F)cc2)c2cnc(-c4ccc(F)cc4)n32)[C@@H](CN2CCOC[C@H]2C)CN1 [Example 8, 1-(4-(4-fluorobenzyl)-1-(4-fluorophenyl)-8,8-dimethyl-7,8-di hydro-6H-imidazo[1,5-a]pyrrolo[2,3-e]pyridin-6-yl)-2-((2R,5R)-5-methyl-2-(((R)-3-methylmorpholino)methyl)piperazin-1-yl)ethan-1-one] |
| > 10000 | C[C@@H]1CN(CC(=O)N2CC(C)(C)c3c2cc(Cc2ccc(F)cc2)c2nc(NS(C)(=O)=O)nn32)[C@@H](CN2CCOC[C@H]2C)CN1 [Example 15, N-(4-(4-fluorobenzyl)-8,8-dimethyl-6-(2-((2R,5R)-5-methyl-2-(((R)-3-methylmorpholino)methyl)piperazin-1-yl)acetyl)-7,8-dihydro-6H-pyrrolo[2,3-e][1,2,4]triazolo[1,5-a]pyridin-2-yl)methanesulfonamide] |
| 6260 | C[C@@H]1CN(CC(=O)N2CC(C)(C)c3c2cc(Cc2ccc(F)cc2)c2nc(N(S(C)(=O)=O)S(C)(=O)=O)nn32)[C@@H](CN2CCOC[C@H]2C)CN1 [Example 16, N-(4-(4-fluorobenzyl)-8,8-dimethyl-6-(2-((2R,5R)-5-methyl-2-(((R)-3-methylmorpholino)methyl)piperazin-1-yl)acetyl)-7,8-dihydro-6H-pyrrolo[2,3-e][1,2,4]triazolo[1,5-a]pyridin-2-yl)-N-(methylsulfonyl)methanesulfonamide] |
| 3710 | C[C@@H]1CN(CC(=O)N2CC(C)(C)c3c2cc(Cc2ccc(F)cc2)n2c(C(F)(F)F)nnc32)[C@@H](CN2CCOC[C@H]2C)CN1 [Example 22, 1-(5-(4-fluorobenzyl)-9,9-dimethyl-3-(trifluoromethyl)-8,9-dihydro-7H-pyrrolo[3,2-c][1,2,4]triazolo[4,3-a]pyridin-7-yl)-2-((2R,5R)-5-methyl-2-(((R)-3-methylmorpholino)methyl)piperazin-1-yl)ethan-1-one] |
| 320 | C[C@@H]1CN(CC(=O)N2CC(C)(C)c3c2cc(Cc2ccc(F)cc2)n2cnnc32)[C@@H](CN2CCOC[C@H]2C)CN1 [Example 23, 1-(5-(4-fluorobenzyl)-9,9-dimethyl-8,9-dihydro-7H-pyrrolo[3,2-c][1,2,4]triazolo[4,3-a]pyridin-7-yl)-2-((2R,5R)-5-methyl-2-(((R)-3-methylmorpholino)methyl)piperazin-1-yl)ethan-1-one] |
| 240 | C[C@@H]1CN(CC(=O)N2CC(C)(C)c3c2cc(Cc2ccc(F)cc2)n2ccnc32)[C@@H](CN2CCOC[C@H]2C)CN1 [Example 24, 1-(5-(4-fluorobenzyl)-9,9-dimethyl-8,9-dihydro-7H-imidazo[1,2-a]pyrrolo[3,2-c]pyridin-7-yl)-2-((2R,5R)-5-methyl-2-(((R)-3-methylmorpholino)methyl)piperazin-1-yl)ethan-1-one] |
| 180 | C[C@@H]1CN(CC(=O)N2CC(C)(C)c3c2cc(Cc2ccc(F)cc2)c2nccnc32)[C@@H](CN2CCOC[C@H]2C)CN1 [Example 26, 1-(5-(4-fluorobenzyl)-9,9-dimethyl-8,9-dihydro-7H-pyrrolo[3,2-f]quinoxalin-7-yl)-2-((2R,5R)-5-methyl-2-(((R)-3-methylmorpholino)methyl)piperazin-1-yl)ethan-1-one] |
| 260 | C[C@@H]1CN(CC(=O)N2CC(C)(C)c3c2cc(Cc2ccc(F)cc2)c2ncsc32)[C@@H](CN2CCOC[C@H]2C)CN1 [Example 27, 1-(4-(4-fluorobenzyl)-8,8-dimethyl-7,8-dihydro-6H-thiazolo[5,4-e]indol-6-yl)-2-((2R,5R)-5-methyl-2-(((R)-3-methylmorpholino)methyl)piperazin-1-yl)ethan-1-one] |
| 330 | C[C@@H]1CN(CC(=O)N2CC(C)(C)c3c2cc(Cc2ccc(F)cc2)c2scnc32)[C@@H](CN2CCOC[C@H]2C)CN1 [Example 28, 1-(4-(4-fluorobenzyl)-8,8-dimethyl-7,8-dihydro-6H-thiazolo[4,5-e]indol-6-yl)-2-((2R,5R)-5-methyl-2-(((R)-3-methylmorpholino)methyl)piperazin-1-yl)ethan-1-one] |
| 3080 | C[C@@H]1CN(CC(=O)N2CC(C)(C)c3c2cc(Cc2ccc(F)cc2)c2nc(=O)n(C)n32)[C@@H](CN2CCOC[C@H]2C)CN1 [compound 127, 4-(4-fluorobenzyl)-1,8,8-trimethyl-6-(2-((2R,5R)-5-methyl-2-(((R)-3-methylmorpholino)methyl)piperazin-1-yl)acetyl)-7,8-dihydro-1H-pyrrolo[2,3-e][1,2,4]triazolo[1,5-a]pyridin-2(6H)-one] |

| Structure (SMILES) | IC50 [nM] |
| --- | --- |
| C[C@@H]1CN(CC(=O)N2CC(C)(C)c3c2cc(Cc2ccc(F)cc2)c2nn(CC(C)(C)O)c(=O)n32)[C@@H](CN2C3COCC2C3)CN1 [Compound 289, 6-(2-((2R,5R)-2-((3-oxa-6-azabicyclo[3.1.1]heptan-6-yl)methyl)-5-methylpiperazin-1-yl)acetyl)-4-(4-fluorobenzyl)-2-(2-hydroxy-2-methylpropyl)-8,8-dimethyl-2,6,7,8-tetrahydro-1H-pyrrolo[2,3-e][1,2,4]triazolo[4,3-a]pyridin-1-one] | 1700 |

Each compound was assayed on EVSA-T cells (assay: Cell proliferation assay (CellTiter-Glo), EVSA-T). Conditions: Homo sapiens, EVSA-T, 72 h, 72 h treatment, Celltiter-Glo luminescence.
Format: cell-based
Protocol: Example 238: Cell Proliferation Assay
MDA-MB-231 and EVSA-T cells (10000 cells/well) were plated onto 96-well plates (Corning, Cat #3917) in 95 μL of medium (RPMI-1640 containing 10% FBS and MEM containing 10% FBS, respectively). Compounds with various concentrations ([…]) were added to the wells. After treatment for 72 h, 30 μL of Celltiter-Glo reagent (Promega, Cat #G7573) was added and incubated at room temperature for 15 min, then the luminescent signal was determined using a microplate reader (Biotek, SynergyH1). The inhibitor dose-response curves were analyzed using normalized IC50 regression curve fitting with control based normalization.

| Structure (SMILES) | IC50 [nM] |
| --- | --- |
| COC(=O)N1CCN(CC2CN[C@H](C)CN2CC(=O)N2CC(C)(C)c3c2cc(Cc2ccc(F)cc2)c2ncnn32)[C@H](C)C1 (stereo in doubt) [Compound 223, methyl (R)-4-(((2S,5R)-1-(2-(4-(4-fluorobenzyl)-8,8-dimethyl-7,8-dihydro-6H-pyrrolo[2,3-e][1,2,4]triazolo[1,5-a]pyridin-6-yl)-2-oxoethyl)-5-methylpiperazin-2-yl)methyl)-3-methylpiperazine-1-carboxylate] | 3 |
| C[C@@H]1CN(CC(=O)N2CC(C)(C)c3c2cc(Cc2ccc(F)cc2)c2cncn32)[C@@H](CN2CCOC[C@H]2C)CN1 [Compound 1, 1-(4-(4-fluorobenzyl)-8,8-dimethyl-7,8-dihydro-6H-imidazo[1,5-a]pyrrolo[2,3-e]pyridin-6-yl)-2-((2R,5R)-5-methyl-2-(((R)-3-methylmorpholino)methyl)piperazin-1-yl)ethan-1-one] | 7 |
| Cc1ncc2c(Cc3ccc(F)cc3)cc3c(n12)C(C)(C)CN3C(=O)CN1C[C@@H](C)NC[C@@H]1CN1CCOC[C@H]1C [Compound 2, 1-(4-(4-fluorobenzyl)-1,8,8-trimethyl-7,8-dihydro-6H-imidazo[1,5-a]pyrrolo[2,3-e]pyridin-6-yl)-2-((2R,5R)-5-methyl-2-(((R)-3-methylmorpholino)methyl)piperazin-1-yl)ethan-1-one] | 13 |
| C[C@@H]1CN(CC(=O)N2CC(C)(C)c3c2cc(Cc2ccc(F)cc2)c2nc(C#N)nn32)[C@@H](CN2CCOC[C@H]2C)CN1 [Compound 32, 4-(4-fluorobenzyl)-8,8-dimethyl-6-(2-((2R,5R)-5-methyl-2-(((R)-3-methylmorpholino)methyl)piperazin-1-yl)acetyl)-7,8-dihydro-6H-pyrrolo[2,3-e][1,2,4]triazolo[1,5-a]pyridine-2-carbonitrile] | 20 |
